Measurements taken from patent US5618814A, “Trisubstituted pyrimido [5,4-d] pyrimidines for modulating multi-drug resistance and pharmaceutical compositions containing these compounds” (Dr. Karl Thomae GmbH, priority 1993, dated 1997).
Read-outs that look alike come from different tables or passages of the source.

Legend:
[1] = test system: adriamycin-resistant S 180 mouse sarcoma cells; assay: Cytotoxicity in proliferating adriamycin-resistant S 180 mouse sarcoma cells (MTT, 6 days) in the absence or presence of adriamycin; assay type: cell-based; settings: S-180, 144 h
Experimental: was tested on cells resistant to adriamycin as follows:
Proliferating, adriamycin-resistant S 180 mouse sarcoma cells were cultivated for six days in the presence of various concentrations of test substances. Concentrations of the test substances with a cytotoxic or cytostatic effect were indicated by reduced cell growth or by the cells dying off. The end point of the assay is the number of living cells per culture which is determined indirectly, making use of the property of vital cells to reduce the dye MTT [=3-(4,5-dimethylthiazol-2-yl)-2,5-diphenyltetrazoliumbromide] to coloured formazane. The IC50 denotes the concentration of a test substance which reduces the number of vital cells per culture vessel to 50% of the untreated control. […] Therefore, two IC50 values are obtained for each test substance, one in the presence of adriamycin (IC50 ADR), the other in the absence of adriamycin (IC50). The difference in the logarithms (to the base ten) of the two IC50 values: Δ=lgIC50-lgIC50 ADR is a measure of the increase in the cytotoxicity of the test substance brought about by adriamycin.
Exponentially growing adriamycin-resistant or adriamycin-sensitive S 180 cells were plated out in 96-well flat-bottomed microtitre dishes at a rate of 2000 cells per well in 100 μl of growth medium (RPMI-1640 containing 10% foetal calf serum). The culture dishes were incubated in an incubator at 37° C., 5% CO2 at 100% relative humidity. After 24 hours, 50 μl of growth medium containing various concentrations of test substance and 50 μl of growth medium with or without adriamycin were added to each well. Following a further 6-day cultivation period, 50 μl of tetrazolium salt solution [5 mg of 3-(4,5-dimethylthiazol-2-yl)-2,5-diphenyl-tetrazoliumbromide per ml of phosphate-buffered saline solution, diluted 1:5 (v/v) with RPMI-1640 before use] were pipetted into each well. After […] incubation the culture medium was carefully suction filtered and the formazane formed intracellularly was solubilised with 150 μl of dimethylsulphoxide per well. The dishes were briefly shaken and the optical density was measured at 570 nm with a photometer such as a Dynatech MR-600 apparatus. The formation of the coloured formazane by reduction of the tetrazolium salt is proportional to the number of living cells. The averages of three measurements were used to calculate the IC50 values (dilution stage: 1:2).

[2] = Tolerability after i.v. administration in mice; assay type: in vivo; settings: 100 mg/kg i.v. in mice
[3] = Adriamycin 0 ng/ml (absence of adriamycin), read-out: IC50
[4] = in presence of Adriamycin 100 ng/ml, read-out: IC50 (IC50 ADR)

CN(Cc1ccccc1)c1ncnc2c(N3CCOCC3)nc(N3CCC(N(C)C)CC3)nc12 [Substance A, 2-[4-(N,N-dimethylamino)-piperidino]-8-(N-benzyl-N-methyl-amino)-4-morpholino-pyrimido [5,4-d]pyrimidine]
IC50 [1, 3]: 1 µg/mL
IC50 [1, 4]: 0.3 µg/mL

COC(=O)NC1CCN(c2nc(N3CCOCC3)c3ncnc(N(C)Cc4ccccc4)c3n2)CC1 [Substance B]
IC50 [1, 3]: 10 µg/mL
IC50 [1, 4]: 1 µg/mL

CN(Cc1ccccc1)c1ncnc2c(N3CCCCC3)nc(N3CCC(N(C)C)CC3)nc12 [Substance C, 2-[4-(N,N-dimethylamino)-piperidino]-8-(N-benzyl-N-methyl-amino)-4-piperidino-pyrimido [5,4-d]pyrimidine]
IC50 [1, 3]: 2 µg/mL
IC50 [1, 4]: 0.3 µg/mL

CN(Cc1ccccc1)c1ncnc2c(N3CCOCC3)nc(N3CCC(N4CCCCC4)CC3)nc12 [Substance D, 8-(N-benzyl-N-methyl-amino)-2-[4-(piperidino)-piperidin-1-yl]-4-morpholino-pyrimido [5,4-d]pyrimidine]
IC50 [1, 3]: 3 µg/mL
IC50 [1, 4]: 0.3 µg/mL

CN(C)CC1CCN(c2nc(N3CCOCC3)c3ncnc(N(C)Cc4cccc5ccccc45)c3n2)CC1 [Substance E, 2-[4-(N,N-dimethylaminomethyl)-piperidino]-8-[N-(napth-1-yl-methyl)-N-methyl-amino]-4-morpholino-pyrimido [5,4-d]pyrimidine]
IC50 [1, 3]: 3 µg/mL
IC50 [1, 4]: 0.1 µg/mL

CN(Cc1ccccc1)c1nc(N2CCC(N(C)C)CC2)nc2c(N3CCOCC3)ncnc12 [Substance F, 4-(N-benzyl-methyl-amino)-2-[4-(N,N-dimethylamino)-piperidino]-8-morpholino-pyrimido [5,4-d]pyrimidine]
IC50 [1, 3]: 3 µg/mL
IC50 [1, 4]: 0.3 µg/mL

COc1cc2c(cc1OC)CN(c1ncnc3c(N4CCOCC4)nc(N4CCC(N(C)C)CC4)nc13)CC2 [Substance G, 2-[4-(N,N-dimethylamino)-piperidino]-8-(6,7-dimethoxy-1,2,3,4-tetrahydro-isoquinolin-2-yl)-4-morpholino-pyrimido [5,4-d]pyrimidine]
IC50 [1, 3]: 3 µg/mL
IC50 [1, 4]: 0.1 µg/mL
toxic side effects / tolerability [2]: did not lead to any detectable toxic side effects

CN(Cc1cccc2ccccc12)c1ncnc2c(N3CCOCC3)nc(N3CCC(N(C)C)CC3)nc12 [Substance H, 2-[4-(N,N-dimethylamino)-piperidino]-8-[N-(naphth-1-yl-methyl)-N-methyl-amino]-4-morpholino-pyrimido [5,4-d]pyrimidine]
IC50 [1, 3]: 3 µg/mL
IC50 [1, 4]: 0.1 µg/mL

CN(Cc1ccccc1)c1nc(N2CCC(NCC(c3ccccc3)c3ccccc3)CC2)nc2c(N3CCOCC3)ncnc12 [Substance I, 2-[4-(2,2-diphenylethylamino)-piperidino]-4-(N-benzyl-N-methyl-amino)-8-morpholino-pyrimido-[5,4-d]pyrimidine]
IC50 [1, 3]: 10 µg/mL
IC50 [1, 4]: 0.3 µg/mL

CN(C)C1CCN(c2nc(N3CCOCC3)c3ncnc(N(CCCNC(=O)c4ccccc4)Cc4ccccc4)c3n2)CC1 [Substance J, 2-[4-(N, N-dimethylamino)-piperidino]-8-[N-benzyl-N-(3-benzoylaminopropyl)-amino]-4-morpholino-pyrimido-[5,4-d]pyrimidine]
IC50 [1, 3]: 3 µg/mL
IC50 [1, 4]: 0.1 µg/mL

CN(Cc1cccc2ccccc12)c1nc(N2CCC(N(C)C)CC2)nc2c(N3CCOCC3)ncnc12 [Substance K, 2-[4-(N,N-dimethylamino)-piperidino]-4-[N-(naphth-1-yl-methyl)-N-methyl-amino]-8-morpholino-pyrimido-[5,4-d]pyrimidine]
IC50 [1, 3]: 3 µg/mL
IC50 [1, 4]: 0.1 µg/mL
